deltaH, deltaG and -TdeltaS data for one molecule are collected here from ChEMBL document CHEMBL6127040, “Discovery and optimization of isoliquiritigenin as a death-associated protein kinase 1 inhibitor” (Eur J Med Chem, 2024).

In test [1] the target is Death-associated protein kinase 1 (Homo sapiens) (UniProt P53355).
Description: Binding affinity to DAPK1 (unknown origin) assessed as change in enthalpy by ITC analysis
For test [2] the target is unchanged. This is another data set of the same source.
Description: Binding affinity to DAPK1 (unknown origin) assessed as change in Gibbs free energy by ITC analysis
The target is the same in test [3]. This is another data set of the same source.
Description: Binding affinity to DAPK1 (unknown origin) assessed as change in entropy by ITC analysis

Death-associated protein kinase 1 (Homo sapiens), sequence (P53355 whole entry, looked up): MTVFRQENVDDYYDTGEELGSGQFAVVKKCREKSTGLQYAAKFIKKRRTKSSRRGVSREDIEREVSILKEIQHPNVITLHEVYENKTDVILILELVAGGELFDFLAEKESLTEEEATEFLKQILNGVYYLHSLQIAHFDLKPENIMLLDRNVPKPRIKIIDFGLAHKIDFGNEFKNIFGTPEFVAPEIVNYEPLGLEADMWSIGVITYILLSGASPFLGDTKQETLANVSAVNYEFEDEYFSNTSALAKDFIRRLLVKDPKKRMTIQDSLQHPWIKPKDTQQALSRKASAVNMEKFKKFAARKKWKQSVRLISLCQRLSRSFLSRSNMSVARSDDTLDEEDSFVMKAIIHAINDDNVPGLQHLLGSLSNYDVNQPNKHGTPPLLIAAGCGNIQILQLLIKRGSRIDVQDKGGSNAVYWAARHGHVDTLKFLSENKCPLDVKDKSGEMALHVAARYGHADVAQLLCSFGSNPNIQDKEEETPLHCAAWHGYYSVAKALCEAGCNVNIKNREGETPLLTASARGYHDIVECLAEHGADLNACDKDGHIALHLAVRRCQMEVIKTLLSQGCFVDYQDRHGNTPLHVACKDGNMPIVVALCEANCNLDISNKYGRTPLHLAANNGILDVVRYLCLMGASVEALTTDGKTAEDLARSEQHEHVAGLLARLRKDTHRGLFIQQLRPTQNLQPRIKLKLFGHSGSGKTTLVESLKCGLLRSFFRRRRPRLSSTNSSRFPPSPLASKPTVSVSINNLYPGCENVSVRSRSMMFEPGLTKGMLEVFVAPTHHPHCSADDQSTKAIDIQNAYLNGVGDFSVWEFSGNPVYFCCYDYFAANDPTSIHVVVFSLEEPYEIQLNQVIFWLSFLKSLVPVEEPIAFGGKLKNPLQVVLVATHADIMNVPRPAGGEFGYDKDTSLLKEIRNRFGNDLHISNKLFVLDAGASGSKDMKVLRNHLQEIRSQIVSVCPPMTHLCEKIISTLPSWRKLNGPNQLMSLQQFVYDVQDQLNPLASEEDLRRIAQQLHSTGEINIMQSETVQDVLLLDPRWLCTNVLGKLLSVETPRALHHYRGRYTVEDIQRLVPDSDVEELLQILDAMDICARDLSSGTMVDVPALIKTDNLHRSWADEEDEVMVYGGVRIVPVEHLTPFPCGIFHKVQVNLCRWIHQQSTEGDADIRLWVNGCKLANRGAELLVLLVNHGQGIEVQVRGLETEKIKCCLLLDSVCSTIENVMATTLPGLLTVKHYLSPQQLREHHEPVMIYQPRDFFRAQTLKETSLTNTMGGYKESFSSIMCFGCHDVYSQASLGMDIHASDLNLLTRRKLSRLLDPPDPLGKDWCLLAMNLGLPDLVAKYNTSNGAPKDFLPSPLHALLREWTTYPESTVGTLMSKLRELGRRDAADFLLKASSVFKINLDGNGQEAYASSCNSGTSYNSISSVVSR

Regarding `O=C(/C=C/c1ccc(O)cc1)c1ccc(O)cc1O`, the deltaH in test [1] was -9.55 kcal/mol. Further, in test [2], the deltaG was -7.66 kcal/mol. In addition, the -TdeltaS in test [3] came out at 1.9 kcal/mol.
